Experimental data: the NIST ThermoML archive (doi:10.1016/j.fluid.2017.12.026)
Several values for one entry are separate records, joined by “and”; a condition that tells them apart may be missing. Identical values can stand only once.

Conditions: Coaxial cylinder method

CCCCC [pentane]
Conditions	thermal conductivity
465.4 K, 9497 kPa, Liquid	0.07785 W/m/K
465.4 K, 9610 kPa, Liquid	0.07785 W/m/K
465.4 K, 9891 kPa, Liquid	0.07814 W/m/K
466.27 K, 100 kPa, Gas	0.03453 W/m/K
466.28 K, 100 kPa, Gas	0.03449 W/m/K
466.29 K, 100 kPa, Gas	0.03442 W/m/K
466.3 K, 100 kPa, Gas	0.03439 W/m/K
466.7 K, 100 kPa, Gas	0.03462 W/m/K
467.36 K, 11000 kPa, Liquid	0.08067 W/m/K
467.36 K, 11500 kPa, Liquid	0.08129 W/m/K
467.36 K, 12000 kPa, Liquid	0.08175 W/m/K
467.36 K, 13000 kPa, Liquid	0.08285 W/m/K
467.36 K, 13800 kPa, Liquid	0.08362 W/m/K
467.36 K, 15200 kPa, Liquid	0.08486 W/m/K
467.36 K, 16000 kPa, Liquid	0.08553 W/m/K
467.36 K, 16500 kPa, Liquid	0.08593 W/m/K
467.36 K, 17000 kPa, Liquid	0.08638 W/m/K
467.36 K, 17500 kPa, Liquid	0.08673 W/m/K
467.36 K, 18000 kPa, Liquid	0.08718 W/m/K
467.36 K, 18500 kPa, Liquid	0.0876 W/m/K
467.36 K, 19000 kPa, Liquid	0.08803 W/m/K
467.36 K, 19500 kPa, Liquid	0.08843 W/m/K
467.36 K, 20000 kPa, Liquid	0.08879 W/m/K
467.36 K, 20500 kPa, Liquid	0.08919 W/m/K
467.36 K, 21000 kPa, Liquid	0.08956 W/m/K
467.36 K, 21500 kPa, Liquid	0.08989 W/m/K
467.36 K, 22000 kPa, Liquid	0.09031 W/m/K
467.36 K, 22500 kPa, Liquid	0.09068 W/m/K
467.36 K, 23000 kPa, Liquid	0.0911 W/m/K
467.36 K, 23500 kPa, Liquid	0.09141 W/m/K
467.36 K, 24000 kPa, Liquid	0.0918 W/m/K
467.36 K, 24500 kPa, Liquid	0.09219 W/m/K
467.36 K, 25000 kPa, Liquid	0.09258 W/m/K
467.36 K, 25500 kPa, Liquid	0.09286 W/m/K
467.36 K, 26000 kPa, Liquid	0.09318 W/m/K
467.36 K, 26500 kPa, Liquid	0.09358 W/m/K
467.36 K, 27000 kPa, Liquid	0.0939 W/m/K
467.36 K, 27500 kPa, Liquid	0.09419 W/m/K
467.36 K, 28000 kPa, Liquid	0.09456 W/m/K
467.36 K, 28500 kPa, Liquid	0.09489 W/m/K
467.36 K, 29000 kPa, Liquid	0.09522 W/m/K
467.36 K, 29500 kPa, Liquid	0.09552 W/m/K
467.36 K, 30000 kPa, Liquid	0.09583 W/m/K
467.36 K, 30500 kPa, Liquid	0.09613 W/m/K
467.36 K, 31000 kPa, Liquid	0.09634 W/m/K
467.36 K, 31280 kPa, Liquid	0.09643 W/m/K
467.36 K, 31300 kPa, Liquid	0.09647 W/m/K
467.36 K, 31340 kPa, Liquid	0.09656 W/m/K
467.76 K, 100 kPa, Gas	0.03471 W/m/K
468.02 K, 100 kPa, Gas	0.03483 W/m/K
468.08 K, 100 kPa, Gas	0.03457 W/m/K
468.57 K, 100 kPa, Gas	0.03481 W/m/K
469.93 K, 100 kPa, Gas	0.03492 W/m/K
470.04 K, 2036 kPa, Gas	0.03754 W/m/K
470.07 K, 100 kPa, Gas	0.03498 W/m/K
470.2 K, 100 kPa, Gas	0.03485 W/m/K
471.68 K, 100 kPa, Gas	0.03523 W/m/K
472.17 K, 1697 kPa, Gas	0.03753 W/m/K
472.21 K, 100 kPa, Gas	0.03519 W/m/K
472.84 K, 100 kPa, Gas	0.03528 W/m/K
472.97 K, 100 kPa, Gas	0.03526 W/m/K
473.01 K, 100 kPa, Gas	0.03533 W/m/K
473.86 K, 100 kPa, Gas	0.03563 W/m/K
474.81 K, 100 kPa, Gas	0.03571 W/m/K
475.4 K, 100 kPa, Gas	0.03567 W/m/K
475.7 K, 10375 kPa, Gas	0.07726 W/m/K
475.7 K, 17575 kPa, Gas	0.0849 W/m/K
475.7 K, 19975 kPa, Gas	0.08712 W/m/K
475.7 K, 24775 kPa, Gas	0.0897 W/m/K
475.7 K, 29975 kPa, Gas	0.09365 W/m/K
475.7 K, 40275 kPa, Gas	0.09992 W/m/K
475.7 K, 48475 kPa, Gas	0.1033 W/m/K
476.21 K, 100 kPa, Gas	0.03593 W/m/K
478.08 K, 100 kPa, Gas	0.03587 W/m/K
478.2 K, 100 kPa, Gas	0.03595 W/m/K
478.5 K, 2001 kPa, Gas	0.03835 W/m/K
478.5 K, 10175 kPa, Gas	0.07793 W/m/K
478.5 K, 19775 kPa, Gas	0.08695 W/m/K
478.5 K, 20375 kPa, Gas	0.08696 W/m/K
478.5 K, 30175 kPa, Gas	0.09387 W/m/K
478.5 K, 32975 kPa, Gas	0.09616 W/m/K
478.5 K, 40175 kPa, Gas	0.1002 W/m/K
478.5 K, 46675 kPa, Gas	0.1028 W/m/K
479.9 K, 100 kPa, Gas	0.03642 W/m/K
482.02 K, 100 kPa, Gas	0.03645 W/m/K
482.02 K, 2180 kPa, Gas	0.03995 W/m/K
484.5 K, 7555 kPa, Gas	0.07149 W/m/K
484.5 K, 10055 kPa, Gas	0.0768 W/m/K
484.5 K, 19975 kPa, Gas	0.08666 W/m/K
484.5 K, 25175 kPa, Gas	0.09003 W/m/K
484.5 K, 27775 kPa, Gas	0.09214 W/m/K
485.84 K, 1820 kPa, Gas	0.03954 W/m/K
485.84 K, 1830 kPa, Gas	0.03953 W/m/K
485.84 K, 1886 kPa, Gas	0.03962 W/m/K
485.84 K, 2000 kPa, Gas	0.04018 W/m/K
485.84 K, 2180 kPa, Gas	0.04056 W/m/K
485.84 K, 2260 kPa, Gas	0.04079 W/m/K
485.84 K, 2280 kPa, Gas	0.04036 W/m/K
485.84 K, 2300 kPa, Gas	0.04075 W/m/K
485.84 K, 2560 kPa, Gas	0.04155 W/m/K
487.28 K, 1820 kPa, Gas	0.03982 W/m/K
487.3 K, 100 kPa, Gas	0.03739 W/m/K
497.3 K, 988 kPa, Gas	0.03935 W/m/K
497.3 K, 2518 kPa, Gas	0.04191 W/m/K
497.3 K, 9975 kPa, Gas	0.07419 W/m/K
497.3 K, 19975 kPa, Gas	0.08618 W/m/K
497.3 K, 30375 kPa, Gas	0.09354 W/m/K
497.3 K, 40275 kPa, Gas	0.09941 W/m/K
497.3 K, 49575 kPa, Gas	0.1037 W/m/K
497.65 K, 100 kPa, Gas	0.03875 W/m/K
500.96 K, 100 kPa, Gas	0.03915 W/m/K
523 K, 988 kPa, Gas	0.0425 W/m/K
523 K, 2508 kPa, Gas	0.04516 W/m/K
523 K, 17975 kPa, Gas	0.0821 W/m/K
523 K, 20175 kPa, Gas	0.08444 W/m/K
523 K, 25475 kPa, Gas	0.0885 W/m/K
523 K, 30475 kPa, Gas	0.09129 W/m/K
523 K, 40175 kPa, Gas	0.09665 W/m/K
523 K, 43475 kPa, Gas	0.09824 W/m/K
523 K, 49975 kPa, Gas	0.1014 W/m/K
526.4 K, 2200 kPa, Gas	0.04473 W/m/K
526.4 K, 2300 kPa, Gas	0.0457 W/m/K
526.4 K, 2400 kPa, Gas	0.0457 W/m/K
526.4 K, 2500 kPa, Gas	0.0457 W/m/K
526.4 K, 2600 kPa, Gas	0.04565 W/m/K
526.4 K, 2700 kPa, Gas	0.0456 W/m/K
526.4 K, 2800 kPa, Gas	0.04599 W/m/K
526.4 K, 2900 kPa, Gas	0.0465 W/m/K
526.4 K, 3000 kPa, Gas	0.04712 W/m/K
526.4 K, 3300 kPa, Gas	0.04771 W/m/K
526.4 K, 3600 kPa, Gas	0.04853 W/m/K
526.4 K, 3700 kPa, Gas	0.04799 W/m/K
526.4 K, 3800 kPa, Gas	0.04888 W/m/K
526.54 K, 2200 kPa, Gas	0.04492 W/m/K
526.57 K, 100 kPa, Gas	0.04253 W/m/K
576.1 K, 100 kPa, Gas	0.04957 W/m/K
576.1 K, 988 kPa, Gas	0.05094 W/m/K
576.1 K, 2417 kPa, Gas	0.05148 W/m/K
576.1 K, 2508 kPa, Gas	0.05179 W/m/K
576.1 K, 4048 kPa, Gas	0.05495 W/m/K
576.1 K, 20475 kPa, Gas	0.08464 W/m/K
576.1 K, 22475 kPa, Gas	0.08627 W/m/K
576.1 K, 30275 kPa, Gas	0.09057 W/m/K
576.1 K, 30575 kPa, Gas	0.09 W/m/K
576.1 K, 40175 kPa, Gas	0.09709 W/m/K
576.1 K, 40975 kPa, Gas	0.09601 W/m/K
576.1 K, 51275 kPa, Gas	0.1023 W/m/K
618.2 K, 7584 kPa, Gas	0.06457 W/m/K
618.2 K, 9985 kPa, Gas	0.06826 W/m/K
618.2 K, 11475 kPa, Gas	0.07159 W/m/K
618.2 K, 12945 kPa, Gas	0.07331 W/m/K
618.2 K, 12985 kPa, Gas	0.07397 W/m/K
618.2 K, 14975 kPa, Gas	0.07629 W/m/K
618.2 K, 18875 kPa, Gas	0.08227 W/m/K and 0.08277 W/m/K
621.2 K, 100 kPa, Gas	0.05581 W/m/K
621.2 K, 10375 kPa, Gas	0.06836 W/m/K
621.2 K, 15375 kPa, Gas	0.07737 W/m/K
621.2 K, 20275 kPa, Gas	0.08383 W/m/K
621.2 K, 22975 kPa, Gas	0.08581 W/m/K
621.2 K, 30175 kPa, Gas	0.09232 W/m/K
621.2 K, 39275 kPa, Gas	0.09614 W/m/K
621.2 K, 40375 kPa, Gas	0.09714 W/m/K
621.2 K, 49975 kPa, Gas	0.1015 W/m/K
621.2 K, 53675 kPa, Gas	0.1031 W/m/K
621.2 K, 53975 kPa, Gas	0.103 W/m/K
